Test results published in EP0106060A2, “Imidazole derivatives and salts thereof, their synthesis, and pharmaceutical formulations” (THE WELLCOME FOUNDATION LIMITED, priority 1982, dated 1984).
Values after ≈ are worked out from the molar mass of the structure shown. Structures can show the parent of a compound that is named as a salt.

What was measured:
[1] = system: Thromboxane A2 Synthetase; test: Determination of thromboxane A2 synthetase inhibitory activity (lysed horse platelets, [1-14C]-arachidonic acid conversion, TLC/scintillation counting); assay type: biochemical; conditions: concentration of active compound required to reduce the enzyme activity by 50%; horse platelet lysate, 3 min at 37°C
Procedure: The active compound was dissolved in a suitable solvent at a concentration of 5 mg/ml, and 20 µl added to 0.8 ml of 100 mM Tris buffer (pH 7.5). The platelets from 5 ml of horse PRP were centrifuged and resuspended in 100µl of Tris buffer. After lysis by sonication or freeze thawing, the platelet suspension was added to the solution of active compound and equilibrated for 5 min at room temperature. Then 300 ng (50 nCi) of [1-^14C]-arachidonic acid, dissolved in 100 µl Tris buffer, was added and the mixture incubated for 3 min at 37°C. The reaction was stopped with 50 ul 2N HCl and the products extracted with 1.5 volumes ethyl acetate by whirling for 30 seconds. 1 ml saturated NaCl was added to the aqueous phase to prevent emulsion formation. […] The plate was developed in chloroform, methanol, acetic acid, water (90:8:1:0.8), dried and then visualised by autoradiography for 2-3 days. […] The concentration of active compound required to reduce the enzyme activity by 50% (ED50) was established.

[2] = system: Thromboxane A2 Synthetase; test: Duration of action of thromboxane A2 synthetase inhibitors in vivo (oral dosing, thromboxane A2 in serum of clotted blood by RIA); set-up: species or system N.Z. male rabbits; conditions: rabbit, period over which thromboxane A2 concentration is depressed relative to controls
Procedure: N.Z. male rabbits weighing 2.5 kg are anaesthetized with sodium pentobarbitone and chloralose and one carotoid artery is cannulated. Blood samples (lml) are taken for incubation; two as controls and one, adding 10 µg indomethacin, as a blank. After each sample is taken the cannula is flushed with saline. The active compound is then administered orally and further samples at half hour intervals for five to eight hours. The blood samples for the controls and the active compound are incubated in glass tubes for 45 minutes at 37°C to clot the blood. Indomethacin is added and the tubes centrifuged to separate the serum which is pipetted off for RIA analysis to determine the concentration of thromboxane A2. The period of time over which the inhibitor depressed the concentration of thromboxane A2 relative to the controls is then determined.

Row | SMILES | ED50 [1] [µg/mL] | duration of action ([2]; dose of 2 mg/kg) | duration of action ([2]; dose of 160 mg/kg)
1 | CCOC(=O)/C=C/c1ccc(Cn2ccnc2)c(Cl)c1 [Example 2, Ethyl (E)-3-[3-chloro-4-(imidazol-1-ylmethyl)phenyl]prop-2-enoate] | 0.5 (≈ 1.72 µM) |  | 
2 | Cl.O.O=C(O)C=Cc1ccc(Cn2ccnc2)c(Br)c1 [Example 6, 3-[3-Bromo-4-(imidazol-1-ylmethyl)phenyl]prop-2-enoic acid hydrochloride hydrate] | 0.015 |  | 
3 | Cl.O=C(O)/C=C/c1ccc(Cn2ccnc2)c(Cl)c1 [Example 3, (E)-3-[3-Chloro-4-(imidazol-1-ylmethyl)phenyl] prop-2-enoic acid hydro chloride] | 0.05 | at least 7 hours | 
4 | Cl.O=C(O)c1ccc(Cn2ccnc2)c(Cl)c1 [Example 1, 1-(4-Carboxy-2-chlorobenzyl)imidazole hydrochloride] | 6.6 |  | at least 5 hours
5 | O=C(O)CCc1ccc(Cn2ccnc2)c(Cl)c1 [Example 4, 3-[3-Chloro-4-(imidazol-1-ylmethyl)phenyl]proeanoic acid hydrochloride] | 0.08 |  | 
6 | O=C(O)c1ccc(C=CCn2ccnc2)cc1Cl [Example 10, 1-[3-(4-Carboxy-3-chlorophenyl)prop-2-enyl]imidazole hydrochloride hemihydrate] | 0.35 |  | 
